Laboratory results as given in paper PMC10119282, “Molecular characterization of AIFM2/FSP1 inhibition by iFSP1-like molecules” (Cell Death & Disease, 2023).

What was measured:
[1] = tested on: Pfa1 Gpx4−/− cells overexpressing murine FSP1 (mFSP1); experiment: Cell viability (Alamar blue), dose-response toxicity in Gpx4-knockout cells expressing mFSP1; format: cell-based
Experimental: (§1) Cell Lines. 4-hydroxytamoxifen (TAM)-inducible Gpx4^−/− murine immortalized fibroblasts (Pfa1) were reported previously. These cells harbor two loxP-flanked Gpx4 alleles and stably express TAM inducible Cre recombinase allowing the genetic deletion of Gpx4 at will. For all experiments using Gpx4^−/− the well were treated with 4-hydroxitamoxifen (TAM) 1 µM. All cells were cultured with were cultured in DMEM-high glucose (4.5 g glucose/L) with 10% fetal bovine serum (FBS), Glutamax, and 1% penicillin/streptomycin (Gibco, Thermo Fischer) at 37 °C with 5% CO2 and verified to be negative for mycoplasma.
(§2) Cell viability assays. Alamar Blue method: Cells were seeded on 96-well plates (2000 cells per well) and treated with the compounds RSL3, iFSP1 and (liproxstatin-1) after plating. Cell viability was assessed 48 h (unless stated otherwise) after treatment using Alamar Blue as an indicator of viable cells. Alamar blue solution was made by dissolving of 1 g resazurin sodium salt (Thermo Fischer) in 200 mL sterile PBS and sterile filtrated through a 0.22 µm filter. Stock solutions were stored at 4 °C. The working solution was made freshly by adding 200 µL of the stock solution to 25 mL growth media. After 2–4 h incubation time, viability was estimated by measuring the fluorescence using a 540/35 excitation filter and a 590/20 emission on a Spark® microplate reader (Tecan, Zürich, Switzerland). […]

[2] = tested on: Pfa1 Gpx4−/− overexpressing mFSP1 K319Q; experiment: Cell viability (Alamar blue), mFSP1 K319Q; format: cell-based, murine; settings: Mus musculus, x axis iFSP1 (μM), read-out: IC50 (dose-response toxicity)
Experimental: as §1
(§3) Cell viability assays. Alamar Blue method: Cells were seeded on 96-well plates (2000 cells per well) and treated with the compounds RSL3, iFSP1 and (liproxstatin-1) after plating. Cell viability was assessed 48 h (unless stated otherwise) after treatment using Alamar Blue as an indicator of viable cells. Alamar blue solution was made by dissolving of 1 g resazurin sodium salt (Thermo Fischer) in 200 mL sterile PBS and sterile filtrated through a 0.22 µm filter. Stock solutions were stored at 4 °C. The working solution was made freshly by adding 200 µL of the stock solution to 25 mL growth media. After 2–4 h incubation time, viability was estimated by measuring the fluorescence using a 540/35 excitation filter and a 590/20 emission on a Spark® microplate reader (Tecan, Zürich, Switzerland).

Water solubility = format: physicochemical
[3] = target: T1, recombinant purified hFSP1 WT (Homo sapiens, UniProt Q9BRQ8); experiment: NADH consumption assay (340 nm), FSP1 enzyme activity and inhibition; format: biochemical; settings: iFSP1 2 µM; menadione as substrate
T1 construct: HisSUMO (cleaved yes); made in house; host or cells: E. coli BL21
T1 sequence (Q9BRQ8 whole entry): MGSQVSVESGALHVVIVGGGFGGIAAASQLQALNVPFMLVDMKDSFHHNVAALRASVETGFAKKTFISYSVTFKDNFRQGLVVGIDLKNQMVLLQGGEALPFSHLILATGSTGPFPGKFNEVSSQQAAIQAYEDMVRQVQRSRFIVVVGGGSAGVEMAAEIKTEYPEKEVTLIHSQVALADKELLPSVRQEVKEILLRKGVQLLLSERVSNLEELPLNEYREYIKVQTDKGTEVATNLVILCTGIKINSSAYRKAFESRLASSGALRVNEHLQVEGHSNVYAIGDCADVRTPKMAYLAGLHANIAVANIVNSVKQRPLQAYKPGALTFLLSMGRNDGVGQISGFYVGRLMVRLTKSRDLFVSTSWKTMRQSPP
Experimental: FSP1 (human isoform 1, UniProt Q9BRQ8-1) WT (hFSP1 WT) and F360L (hFSP1 F360L) were expressed in E.coli BL21 as HisSUMO fusion protein. Cells were grown in lysogeny broth medium at 18 °C and induced with 0.5 mM isopropyl-β-thiogalactoside at a cell density A600 of 0.6. Cells were collected after overnight expression by centrifugation, resuspended in lysis buffer ([…], 50 mM Tris-HCl pH 8, 1 mM TCEP, 20 mM imidazole, protease inhibitor, DNase) and lysed by sonication. Cell debris was removed by centrifugation (30,000 × g) at 4 °C for 30 min, after which an IMAC purification was performed. […] IMAC eluates were analysed by SDS PAGE and concentrated to 15 mL (hFSP1 WT) and 5 mL (hFSP1 F360L), respectively. […] Pure fractions were pooled (C12—D11 for hFSP1 WT and C7—D4 for hFSP1 F360L), analysed by SDS-PAGE (Supplementary Fig. 4) and concentrated to 5.8 mL at 285.9 µM (hFSP1 WT) and 1.2 mL at 269.5 µM (FSP1 F360L), flash frozen in liquid N2 and stored at −80 °C.
Enzyme reactions were performed in TBS buffer (50 mM TRIS pH 8, 250 mM NaCl) on a 96-well plate in a 100 µL final volume. […] Absorbance (340 nm) was recorded every 30 s on a Spark® microplate reader (Tecan, Zürich, Switzerland) in order to determine NADH consumption. […]

[4] = tested on: Pfa1 Gpx4−/− overexpressing chimeric FSP1 C6; experiment: Cell viability (Alamar blue), chimeric construct C6; format: cell-based, murine
Experimental: as §1, §2

[5] = tested on: Pfa1 Gpx4−/− cells overexpressing human FSP1 (hFSP1); experiment: Cell viability (Alamar blue), dose-response toxicity in Gpx4-knockout cells expressing hFSP1; format: cell-based, murine
Experimental: as §1, §3
Codon-optimized Mus musculus (mouse) FSP1 (NP_001034283.1) and Homo sapiens (Human) FSP1 (NP_001185625.1) were synthesized by IDT as gBlocks^TM and subcloned into p442-IRES-blast vectors. The chimera constructs were generated based on the pairwise alignment between the gene of Homo sapiens (Human) and the Mus musculus (Mouse), all the chimeric constructs contain the murine isoform with one region exchanged to the human isoform. […]

[6] = tested on: Pfa1 Gpx4−/− overexpressing chimeric FSP1 C5; experiment: Cell viability (Alamar blue), chimeric construct C5; format: cell-based, murine; settings: Mus musculus; chimeric construct C5 (human residues 241 to 300); x axis iFSP1 (μM); read-out: IC50 (dose-response toxicity)
Experimental: as §1, §2

[7] = tested on: Pfa1 Gpx4−/− overexpressing hFSP1 F360A; experiment: Cell viability (Alamar blue), hFSP1 F360A; format: cell-based, murine
Experimental: as §1, §3

## Cc1ccc(-c2c(C#N)c(N)n3c(nc4ccccc43)c2C#N)cc1 [iFSP1]
[1]; Mus musculus, mFSP1 WT, Δ curve (no Lip-1), Alamar blue, x axis iFSP1 (μM)
  IC50: 7.48 µM
[1]; murine isoform
  induction of ferroptosis: could only induce ferroptosis in the cell line expressing the human isoform
[2]
  IC50: 5.62 µM
Water solubility
  water solubility: poor
[3]
  inhibition of enzyme activity (NADH consumption): inhibited
[4]; Mus musculus, chimeric construct C6 (human residues 301 till 373), x axis iFSP1 (μM), read-out: IC50 (dose-response toxicity)
  IC50: 1.64 µM
[4]; chimera C6
  induction of ferroptosis: underwent ferroptosis upon iFSP1 treatment
[5]; Mus musculus, hFSP1 WT, Δ curve (no Lip-1), Alamar blue, x axis iFSP1 (μM)
  IC50: 0.45 µM
[5]; human isoform
  induction of ferroptosis: induce ferroptosis
[6]
  IC50: 6.82 µM
[7]
  inhibitor activity (ferroptosis induction): abolishes the inhibitor activity
[7]; Mus musculus, x axis iFSP1 (μM), read-out: IC50 (dose-response toxicity)
  IC50: 5.62 µM
